In patent US20230263812A1, “Compositions and Methods for Treating COVID-19 and/or Acute Respiratory Failure and/or Acute Respiratory Distress Syndrome Using Tetrahydrocannabinol and Compositions Including Same” (priority 2020, published 2023):
Counter-ions that a name gives are not always drawn. Like-named read-outs stand apart in the source and are kept apart here.

Columns and labels:
[1] = tested on: COVID-19; assay: Clinical study of oral dronabinol plus standard of care in COVID-19 patients hospitalized for hypoxia; format: in vivo, human; conditions: for LOS: LOS = length of stay (days)
[2] = cited from earlier work
[3] = cited from earlier work; for share of the urinary excretion products of fluvoxamine: 5 mg radiolabelled dose of fluvoxamine maleate, fluvoxamine acid value is together with its N-acetylated analog; for bound to plasma protein: mostly albumin, concentration range 20 to 2000 ng/mL
[4] = tested on: serotonin uptake; conditions: in vitro, rats; cited from earlier work
[5] = tested on: norepinephrine reuptake; conditions: in vitro, rats; cited from earlier work
[6] = tested on: serotonin reuptake; conditions: in vitro as well as in vivo; cited from earlier work
[7] = cited from earlier work; remark: listed apart in the source
[8] = biological target: σ-1 non-opioid receptor (Homo sapiens, UniProt Q99720); conditions: cited from earlier work
σ-1 non-opioid receptor, sequence (Q99720 whole entry): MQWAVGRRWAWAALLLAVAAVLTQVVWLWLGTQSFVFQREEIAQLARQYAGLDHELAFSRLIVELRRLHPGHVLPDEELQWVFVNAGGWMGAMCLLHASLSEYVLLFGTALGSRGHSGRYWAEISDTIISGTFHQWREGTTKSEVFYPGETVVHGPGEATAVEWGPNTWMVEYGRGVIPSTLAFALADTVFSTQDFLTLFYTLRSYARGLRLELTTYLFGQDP

With CCCCCc1cc(O)c2c(c1)OC(C)(C)[C@@H]1CCC(C)=C[C@@H]21 [dronabinol, (−)-(6aR,10aR)-6,6,9-trimethyl-3-pentyl-6a,7,8,10a-tetrahydro-6H-benzo[c]-chromen-1-ol] the “survival rate” value ([1]; 2.5 mg dronabinol regimen) was 88.9%, the LOS ([1]; 2.5 mg dronabinol regimen) was 17.4 and the “# Survived” value ([1]; 2.5 mg dronabinol regimen, total 9 in group) was 8. For the same molecule, the survival rate ([1]; 2.5 mg group (2.5 mg twice orally daily)) was 89%, the “survival rate” value ([1]; 5 mg dronabinol regimen) was 94.1% and the LOS ([1]; 5 mg dronabinol regimen) was 8.8. For the same molecule, the “# Survived” value ([1]; 5 mg dronabinol regimen, total 68 in group) was 64, the survival rate ([1]; 5 mg treated group (5 mg orally twice daily)) was 93.5% and the survival rate ([1]; all dronabinol-treated patients (77), standard of care alone 80%) was 93.5%. The Mortality rate ([1]; hospitalized COVID-19 patients requiring oxygen supplementation, 2.5 mg or 5 mg dronabinol orally BID plus standard of care, 77 patients, untreated group 20.5%) was 6.5%, the “average first peak C-reactive protein (CRP) levels, difference” value ([1]; lower in the treatment group than untreated, p-value 0.07, not statistically significant) was 14% and the reduction in mortality ([1]; treated group (77) versus untreated/control group (44), p-value 0.02) was 68%. The “Length of stay in the hospital” value ([1]; treated group, untreated group 15.6 days) was 9.9 days, the “reduction in length of stay” value ([1]; treated versus untreated group, p-value 0.01) was 37% and the “time for which low levels of metabolites are detected in the urine and feces” value ([2]; following single dose administration) was “more than 5 weeks”. For the same molecule, the “radio-labeled oral dose recovered from the feces within 72 hours” value ([2]; in vivo, po) was “about half”, the “radio-labeled oral dose recovered from urine” value ([2]; in vivo, po) was 10-15% and the “absorbed after single oral doses” value ([2]; oral) was 90-95%. The plasma protein binding ([2]; Δ9-THC and its metabolites) was “approximately 97%”.

In the case of NCCO/N=C(\CCCC(=O)O)c1ccc(C(F)(F)F)cc1 [fluvoxamine acid], the “share of the urinary excretion products of fluvoxamine” value [3] is given as “about 60%” and the “potency on serotonin uptake relative to the parent compound” value [4] is given as 1-2 orders of magnitude less potent.

For COCCCC/C(=N\OCCO)c1ccc(C(F)(F)F)cc1 [fluvoxamine ethanol], the “share of the urinary excretion products of fluvoxamine” value [3] is given as “about 10%”, the norepinephrine reuptake inhibition [5] is given as “inactive” and the “inhibition of serotonin uptake” value [4] is given as “inactive”.

In the case of COCCCC/C(=N\OCCN)c1ccc(C(F)(F)F)cc1 [fluvoxamine maleate], the “effect of food on oral bioavailability” value ([3]; human, in vivo, po) is given as “not significantly affected by food”.

For COCCCC/C(=N\OCCN)c1ccc(C(F)(F)F)cc1 [fluvoxamine, 2-[(E)-[5-methoxy-1-[4-(trifluoromethyl)phenyl]pentylidene]amino]oxyethanamine], the serotonin reuptake inhibition [6] is listed as “potent”, the “decrease in clearance in association with hepatic dysfunction” value ([7]; cross study comparison, healthy subjects versus patients with hepatic dysfunction) is listed as 30% and the “clearance reduced in elderly patients” value ([7]; human, in vivo) is listed as “about 50%”. For the same molecule, the “mean apparent volume of distribution” value ([3]; human, in vivo) was “approximately 25 L/kg”, the “mean apparent volume of distribution” value ([3]; human, in vivo, listed as Fluvoxamine) was 25 L/kg and the “bound to plasma protein” value [3] was “Approximately 80%”. For the same molecule, the “bound to plasma protein” value ([3]; listed as Fluvoxamine) was 80% and the “agonistic sigma1 binding affinity, rank among agents tested” value [8] was “strongest”.
